{
  "source": "patent US20130149269A1",
  "about": "“NOVEL MALODOR COUNTERACTANT” (priority 2011, published 2013)",
  "key": {"[1]": {"test": "Bathroom malodor counteracting test, trained sensory panel (LMS rating)", "conditions": "for Malodor Intensity / % MOR: bathroom malodor; for Malodor Intensity: mean LMS 0-100, 24 hours equilibration; for % MOR: relative to Malodor Alone", "from_the_text": "(§1) Establishment of Malodor Models: A number of malodorous chemicals have been identified, which are associated with different types of malodors. Commercial samples of these chemicals (commercially available at Sigma-Aldrich Inc.) were thus used in the present invention as malodorous model compounds to assess the effectiveness of methyl 3-methyl cyclohexane carboxylate in counteracting malodors.\n(§2) A model of bathroom malodor was established using a solution of isovaleric acid (“IVA”) in diethyl phthalate (“DEP”) (10% by weight). A model of sweat malodor was established using a solution of 3-methyl-2-hexanoic acid in DEP (5% by weight). A model of mold/mildew malodors was established using a solution of 2-ethyl-1-hexanol in DEP (20% by weight). A model of smoke malodor was established by applying a solution of 3-acetyl pyridine in DEP (5% by weight) onto a piece of cloth.\n(§3) Preparation of Test Samples: Methyl 3-methyl cyclohexane carboxylate was prepared at a series of concentrations, ranging from 0.1% to 5% in DEP, with corresponding vapor phase concentrations ranging from about 4 μg to about 0.2 mg per liter of air space.\n(§4) A malodor material as established above (1 g) and a solution of methyl 3-methyl cyclohexane carboxylate in DEP (1 g) were pipetted into separate aluminum weighing dishes located at the bottom of a 32 oz. jar (1 L). For negative control samples (Malodor Alone), the malodor material (0.5 g) was pipetted into each of the two dishes located at the bottom of jar. Jars were then capped and the samples were allowed to equilibrate for 24 hours before testing.\n(§5) Testing Procedure: Test samples were presented in a blind and pseudorandom order to a group of trained panelists (consisting of 12-17 females with a mean age of 40 years). The panelists were instructed to take the following steps: i) sniff malodor reference jars for familiarization prior to each testing session; ii) uncap a jar; iii) place their noses at a distance of about 3-4 inches above the opening; iv) take short sniffs for about 2-3 seconds; and v) enter a rating of overall intensity and malodor intensity on a handheld computer.\n(§6) The overall and malodor intensity was rated using the Labeled Magnitude Scale (LMS) [Green, et al., Chemical Senses, 21(3), June 1996, 323-334]. Mean (“Malodor Intensity”) and standard error of the mean (“SE”, ±) were obtained, where 0 represents “No Sensation” and 100 represents “The Strongest Imaginable Malodor Sensation”. Percent malodor reduction (“% MOR”) represents the perceived reduction in mean malodor intensity of the sample containing the malodor in the presence of methyl 3-methyl cyclohexane carboxylate relative to the negative control (Malodor Alone)."}, "[2]": {"test": "Sweat malodor counteracting test, trained sensory panel (LMS rating)", "conditions": "for Malodor Intensity / % MOR: sweat malodor; for Malodor Intensity: mean LMS 0-100, 24 hours equilibration; for % MOR: relative to Malodor Alone", "from_the_text": "as §1, §2, §3, §4, §5, §6"}, "[3]": {"test": "Mold/mildew malodor counteracting test, trained sensory panel (LMS rating)", "conditions": "for Malodor Intensity / % MOR: mold/mildew malodor; for Malodor Intensity: mean LMS 0-100, 24 hours equilibration; for % MOR: relative to Malodor Alone", "from_the_text": "as §1, §2, §3, §4, §5, §6"}, "[4]": {"test": "Smoke malodor counteracting test, trained sensory panel (LMS rating)", "conditions": "for Malodor Intensity / % MOR: smoke malodor; for Malodor Intensity: mean LMS 0-100, 24 hours equilibration; for % MOR: relative to Malodor Alone", "from_the_text": "as §1, §2, §3, §4, §5, §6"}, "[5]": {"conditions": "overall conclusion, 0.1% to 5% in DEP"}},
  "data": [
    {"smiles": "COC(=O)C1CCCC(C)C1", "note": "(stereo not drawn) [Methyl 3-Methyl Cyclohexane Carboxylate, methyl 3-methyl cyclohexane carboxylate]", "values": [
      {"measurement": "Malodor Intensity", "setting": "[1]; 0.1% in DEP, 4 μg/L", "value": 8.65},
      {"measurement": "% MOR", "setting": "[1]; 0.1% in DEP, 4 μg/L", "value": 56.93, "unit": "%"},
      {"measurement": "Malodor Intensity", "setting": "[1]; 0.5% in DEP, 21 μg/L", "value": 5.44},
      {"measurement": "% MOR", "setting": "[1]; 0.5% in DEP, 21 μg/L", "value": 66.47, "unit": "%"},
      {"measurement": "Malodor Intensity", "setting": "[1]; 1% in DEP, 42 μg/L", "value": 2.69},
      {"measurement": "% MOR", "setting": "[1]; 1% in DEP, 42 μg/L", "value": 86.11, "unit": "%"},
      {"measurement": "Malodor Intensity", "setting": "[1]; 5% in DEP, 208 μg/L", "value": 1.71},
      {"measurement": "% MOR", "setting": "[1]; 5% in DEP, 208 μg/L", "value": 90.86, "unit": "%"},
      {"measurement": "counteracting the bathroom malodor (result in words)", "setting": "[1]; [5]", "value": "effective"},
      {"measurement": "counteracting the sweat malodor (result in words)", "setting": "[2]; [5]", "value": "effective"},
      {"measurement": "Malodor Intensity", "setting": "[2]; 0.1% in DEP, 4 μg/L", "value": 4.48},
      {"measurement": "% MOR", "setting": "[2]; 0.1% in DEP, 4 μg/L", "value": 77.92, "unit": "%"},
      {"measurement": "Malodor Intensity", "setting": "[2]; 0.5% in DEP, 21 μg/L", "value": 5.12},
      {"measurement": "% MOR", "setting": "[2]; 0.5% in DEP, 21 μg/L", "value": 72.63, "unit": "%"},
      {"measurement": "Malodor Intensity", "setting": "[2]; 1% in DEP, 42 μg/L", "value": 5.42},
      {"measurement": "% MOR", "setting": "[2]; 1% in DEP, 42 μg/L", "value": 73.14, "unit": "%"},
      {"measurement": "Malodor Intensity", "setting": "[2]; 5% in DEP, 208 μg/L", "value": 3.55},
      {"measurement": "% MOR", "setting": "[2]; 5% in DEP, 208 μg/L", "value": 81.47, "unit": "%"},
      {"measurement": "Malodor Intensity", "setting": "[3]; 0.1% in DEP, 4 μg/L", "value": 9.88},
      {"measurement": "% MOR", "setting": "[3]; 0.1% in DEP, 4 μg/L", "value": 40.01, "unit": "%"},
      {"measurement": "Malodor Intensity", "setting": "[3]; 0.5% in DEP, 21 μg/L", "value": 5.44},
      {"measurement": "% MOR", "setting": "[3]; 0.5% in DEP, 21 μg/L", "value": 69.56, "unit": "%"},
      {"measurement": "Malodor Intensity", "setting": "[3]; 1% in DEP, 42 μg/L", "value": 4.44},
      {"measurement": "% MOR", "setting": "[3]; 1% in DEP, 42 μg/L", "value": 76.51, "unit": "%"},
      {"measurement": "Malodor Intensity", "setting": "[3]; 5% in DEP, 208 μg/L", "value": 3.34},
      {"measurement": "% MOR", "setting": "[3]; 5% in DEP, 208 μg/L", "value": 83.07, "unit": "%"},
      {"measurement": "counteracting the mold/mildew malodor (result in words)", "setting": "[3]; [5]", "value": "effective"},
      {"measurement": "counteracting the smoke malodor (result in words)", "setting": "[4]; [5]", "value": "effective"},
      {"measurement": "Malodor Intensity", "setting": "[4]; 0.1% in DEP, 4 μg/L", "value": 10.02},
      {"measurement": "% MOR", "setting": "[4]; 0.1% in DEP, 4 μg/L", "value": 51.95, "unit": "%"},
      {"measurement": "Malodor Intensity", "setting": "[4]; 0.5% in DEP, 21 μg/L", "value": 7.23},
      {"measurement": "% MOR", "setting": "[4]; 0.5% in DEP, 21 μg/L", "value": 66.04, "unit": "%"},
      {"measurement": "Malodor Intensity", "setting": "[4]; 1% in DEP, 42 μg/L", "value": 4.78},
      {"measurement": "% MOR", "setting": "[4]; 1% in DEP, 42 μg/L", "value": 77.57, "unit": "%"},
      {"measurement": "Malodor Intensity", "setting": "[4]; 5% in DEP, 208 μg/L", "value": 4.23},
      {"measurement": "% MOR", "setting": "[4]; 5% in DEP, 208 μg/L", "value": 80.07, "unit": "%"}
    ]}
  ]
}
